# Data reported in patent US9676789B2, “Aminated derivative of homoharringtonine, preparation method therefor, and application thereof” (HANGZHOU BENSHENG PHARMACEUTICAL CO., LTD., priority 2011, dated 2017).
# Columns and labels:
# [1] = system: H9 (acute lymphoblastic leukemia, ALL); assay: MTT leukemia cell growth inhibition, 72 h; assay type: cell-based, human; details: Homo sapiens, H9, 72 h; for IC50: read-out: IC50; for IC90: read-out: IC90
# Procedure, shortened: (§1)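 6000 cells per well were seeded in RPMI 1640 with 10% FBS, treated with graded concentrations of homoharringtonine derivatives, and incubated 72 h at 37 °C, 5% CO2. Viable cells were measured by MTT, with untreated control set as 100% viability.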
# [2] = system: Jurkat (acute lymphoblastic leukemia, ALL); assay: MTT leukemia cell growth inhibition, 72 h; assay type: cell-based, human; details: Homo sapiens; for IC50: read-out: IC50; for IC90: read-out: IC90
# Procedure, shortened: as §1
# [3] = system: K562/adr (drug-resistant, chronic myeloid leukemia, CML); assay: MTT leukemia cell growth inhibition, 72 h; assay type: cell-based, human; details: Homo sapiens, K562/Adr; for IC50: read-out: IC50; for IC90: read-out: IC90
# Procedure, shortened: as §1
# [4] = system: Kasumi-1 (acute myeloid leukemia M2 type, AML-M2); assay: MTT leukemia cell growth inhibition, 72 h; assay type: cell-based, human; details: Homo sapiens, Kasumi-1, 72 h; for IC50: read-out: IC50; for IC90: read-out: IC90
# Procedure, shortened: as §1
# [5] = system: NB4 (acute promyelocytic leukemia, AML); assay: MTT leukemia cell growth inhibition, 72 h; assay type: cell-based, human; details: Homo sapiens, NB4, 72 h; for IC50: read-out: IC50; for IC90: read-out: IC90
# Procedure, shortened: as §1
# [6] = system: RPMI8226 (multiple myeloma); assay: MTT multiple myeloma cell growth inhibition, 72 h; assay type: cell-based, human; details: for IC50 / IC90: Homo sapiens, RPMI-8226, RPMI8226, 72 h; for IC50: read-out: IC50; for IC90: read-out: IC90
# Procedure, shortened: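 Viability determined by MTT after 72 h of compound exposure at 37° C under 5% CO2. Myeloma RPMI8226 cells were seeded at 6000 per well in 1640 medium containing 10% fetal bovine serum.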
# A549 (human lung cancer) = assay: MTT solid tumor cell growth inhibition, 72 h; assay type: cell-based; details: Homo sapiens, A549, 72 h; for IC50: read-out: IC50; for IC90: read-out: IC90
# Procedure, shortened: (§2)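 Cells (4000/well) were seeded in DMEM high glucose with 10% FBS and grown 24 h at 37° C, 5% CO2, then exposed to graded concentrations of homoharringtonine derivatives for 72 h. Viable cells were measured by MTT, with viability expressed as % of untreated control (100%).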
# [7] = system: Becap37 (human breast cancer cell); assay: MTT solid tumor cell growth inhibition, 72 h; assay type: cell-based; details: Homo sapiens, Becap37, 72 h; for IC50: read-out: IC50; for IC90: read-out: IC90
# Procedure, shortened: as §2
# [8] = system: Hela (human cervical cancer cell); assay: MTT solid tumor cell growth inhibition, 72 h; assay type: cell-based; details: Homo sapiens, HeLa; for IC50: read-out: IC50; for IC90: read-out: IC90
# Procedure, shortened: as §2
# [9] = system: Hep-2 (human hepatocellular carcinoma); assay: MTT solid tumor cell growth inhibition, 72 h; assay type: cell-based; details: Homo sapiens, HEp-2, Hep2, 72 h; for IC50: read-out: IC50; for IC90: read-out: IC90
# Procedure, shortened: as §2
# [10] = system: Huh7 (human liver cancer cell); assay: MTT solid tumor cell growth inhibition, 72 h; assay type: cell-based; details: Homo sapiens, Huh-7, Huh7, 72 h; for IC50: read-out: IC50; for IC90: read-out: IC90
# Procedure, shortened: as §2
# [11] = system: MGC 803 (human gastric cancer cell); assay: MTT solid tumor cell growth inhibition, 72 h; assay type: cell-based; details: Homo sapiens, MGC 803, 72 h; for IC50: read-out: IC50; for IC90: read-out: IC90
# Procedure, shortened: as §2
# [12] = system: RKO (human colon adenocarcinoma cell); assay: MTT solid tumor cell growth inhibition, 72 h; assay type: cell-based; details: Homo sapiens; for IC50: read-out: IC50; for IC90: read-out: IC90
# Procedure, shortened: as §2
# [13] = system: CNE (nasopharyngeal carcinoma cell); assay: MTT solid tumor cell growth inhibition, 72 h; assay type: cell-based, human; details: Homo sapiens; for IC50: read-out: IC50; for IC90: read-out: IC90
# Procedure, shortened: as §2
# [14] = system: CaES-17 (esophageal cancer cell); assay: MTT solid tumor cell growth inhibition, 72 h; assay type: cell-based, human; details: Homo sapiens, CaEs17, CaES-17, 72 h; for IC50: read-out: IC50; for IC90: read-out: IC90
# Procedure, shortened: as §2
# MG63 (osteosarcoma) = assay: MTT solid tumor cell growth inhibition, 72 h; assay type: cell-based, human; details: Homo sapiens, MG 63, 72 h; for IC50: read-out: IC50; for IC90: read-out: IC90
# Procedure, shortened: as §2
# [15] = system: PANC-1 (pancreatic cancer); assay: MTT solid tumor cell growth inhibition, 72 h; assay type: cell-based, human; details: Homo sapiens, PANC-1, 72 h; for IC50: read-out: IC50; for IC90: read-out: IC90
# Procedure, shortened: as §2
# PC-3 (prostate cancer) = assay: MTT solid tumor cell growth inhibition, 72 h; assay type: cell-based, human; details: Homo sapiens, PC-3, 72 h; for IC50: read-out: IC50; for IC90: read-out: IC90
# Procedure, shortened: as §2
# [16] = system: SK-OV-3 (ovarian cancer cell); assay: MTT solid tumor cell growth inhibition, 72 h; assay type: cell-based, human; details: Homo sapiens, SK-OV-3, 72 h; for IC50: read-out: IC50; for IC90: read-out: IC90
# Procedure, shortened: as §2
# [17] = system: U87 MG (malignant glioma cell); assay: MTT solid tumor cell growth inhibition, 72 h; assay type: cell-based, human; details: Homo sapiens, U-87 MG; for IC50: read-out: IC50; for IC90: read-out: IC90
# Procedure, shortened: as §2
# [18] = system: K562/adr, NB4, Kasumi-1 and H9; assay: Anti-leukemia activity, summary over cell lines; assay type: cell-based, human; details: result in words, summary of Table 1
# From the text: Leukemia cell lines: K562/adr (drug-resistant, chronic myeloid leukemia, CML), NB4 (acute promyelocytic leukemia, AML), Kasumi-1 (acute myeloid leukemia M2 type, AML-M2), Jurkat (acute lymphoblastic leukemia, ALL), all of which are donated by Cancer Research Institute of Zhejiang University, China; and H9 (acute lymphoblastic leukemia, ALL), which is purchased from China Center for Type Culture Collection.
# Obtaining 6000 well-growing leukemia cells and inoculating them into wells of a 96-well cell culture plate. The culture medium is the 1640 cell culture medium containing 10% fetal bovine serum. After adding the homoharringtonine derivatives of different concentrations and mixing uniformly, placing the plate in a carbon dioxide cell incubator (5% CO2) at 37° C. and incubating for 72 hours. Then the viable cell concentration is determined by the MTT method. In this experiment, the cell viability in control group (not treated with any compound) is set as 100%.
# [19] = system: A549, PANC-1, Becap37, MG63, Huh7, RKO, Hela, CaES-17, CNE, Hep-2, PC-3 and SK-OV-3; assay: Anti-human solid tumor effect, summary over cell lines; assay type: cell-based; details: result in words, summary of Table 2
# Procedure: Human solid tumor cell lines: Hep-2 ([…]), A549 (human lung cancer), CaES-17 (esophageal cancer cell), PC-3 (prostate cancer), CNE (nasopharyngeal carcinoma cell), and SK-OV-3 (ovarian cancer cell), all of which are purchased from China Center For Type Culture Collection; RKO (human colon adenocarcinoma cell), MGC 803 (human gastric cancer cell), MG63 (osteosarcoma) and U87 MG (malignant glioma cell), all of which are purchased from Fuxiang Bio-tech Co. Ltd., Shanghai, China; PANC-1 (pancreatic cancer), Huh7 (human liver cancer cell), Becap37 (human breast cancer cell), and Hela (human cervical cancer cell), all of which are donated by Cancer Research Institute of Zhejiang University, China.
# Obtaining 4000 well-growing human solid tumor cells and inoculating them into wells of a 96-well cell culture plate. The culture medium is DMEM High Glucose cell culture medium containing 10% fetal bovine serum. The plate is placed in a carbon dioxide cell incubator (5% CO2) at 37° C. and incubating for 24 hours. After adding the homoharringtonine derivatives of different concentration and mixing uniformly, the plate is placed in a carbon dioxide cell incubator (5% CO2) at 37° C. and incubating for 72 hours. Then the viable cell concentration is determined by the MTT method and the cell viability (%) after drug treatment is calculated. In this experiment, the cell viability of control group (not treated with any compound) is set as 100%.
structure (smiles),measurement,setting,value
COC1=C[C@]23CCCN2CCc2cc4c(cc2[C@@H]3[C@@H]1OC(=O)[C@@](O)(CCCC(C)(C)O)CC(=O)N1CCC(N(C)C)CC1)OCO4 [BS-HH-050],IC50,[1],0.13 µg/mL
same,IC90,[1],0.35 µg/mL
same,IC50,[2],0.12 µg/mL
same,IC90,[2],16 µg/mL
same,IC50,[3],0.72 µg/mL
same,IC90,[3],8.99 µg/mL
same,IC50,[4],0.041 µg/mL
same,IC90,[4],0.18 µg/mL
same,IC50,[5],0.08 µg/mL
same,IC90,[5],0.17 µg/mL
same,IC50,[6],0.1 µg/mL
same,IC90,[6],0.38 µg/mL
same,IC50,A549 (human lung cancer),0.7 µg/mL
same,IC90,A549 (human lung cancer),> 16 µg/mL
same,IC50,[7],0.26 µg/mL
same,IC90,[7],16 µg/mL
same,IC50,[8],0.46 µg/mL
same,IC90,[8],> 16 µg/mL
same,IC50,[9],0.31 µg/mL
same,IC90,[9],> 16 µg/mL
same,IC50,[10],0.1 µg/mL
same,IC90,[10],16 µg/mL
same,IC50,[11],0.18 µg/mL
same,IC90,[11],0.48 µg/mL
same,IC50,[12],0.053 µg/mL
same,IC90,[12],0.23 µg/mL
same,IC50,[13],0.15 µg/mL
same,IC90,[13],> 16 µg/mL
same,IC50,[14],0.46 µg/mL
same,IC90,[14],16 µg/mL
same,IC50,MG63 (osteosarcoma),0.19 µg/mL
same,IC90,MG63 (osteosarcoma),7.22 µg/mL
same,IC50,[15],0.23 µg/mL
same,IC90,[15],> 16 µg/mL
same,IC50,PC-3 (prostate cancer),0.45 µg/mL
same,IC90,PC-3 (prostate cancer),> 16 µg/mL
same,IC50,[16],0.57 µg/mL
same,IC90,[16],> 16 µg/mL
same,IC50,[17],0.24 µg/mL
same,IC90,[17],1.06 µg/mL
same,"anti-K562/adr, anti-NB4, anti-Kasumi-1 and anti-H9 activity",[18],strong
same,"anti-A549, anti-PANC-1, anti-Becap37, anti-MG63, anti-Huh7, anti-RKO, anti-Hela, anti-CaES-17, anti-CNE, anti-Hep-2, anti-PC-3 and anti-SK-OV-3 effect",[19],strong
"COC1=C[C@]23CCCN2CCc2cc4c(cc2[C@@H]3[C@@H]1OC(=O)[C@@](O)(CCCC(C)(C)O)CC(=O)NCc1ccc(C)o1)OCO4 [BS-HH-054, O-3-[(2R)-2,6-dihydroxy-2-(2′-(5-methyl)furan-2-methylamino-2′-oxoethyl)-6-methylheptanoyl]cephalotaxine]",IC50,[1],0.17 µg/mL
same,IC90,[1],0.43 µg/mL
same,IC50,[2],0.11 µg/mL
same,IC90,[2],16 µg/mL
same,IC50,[3],0.66 µg/mL
same,IC90,[3],4.4 µg/mL
same,IC50,[4],0.053 µg/mL
same,IC90,[4],0.19 µg/mL
same,IC50,[5],0.09 µg/mL
same,IC90,[5],0.2 µg/mL
same,IC50,[6],0.092 µg/mL
same,IC90,[6],0.24 µg/mL
same,anti-RPMI8226 (multiple myeloma) effect,"[6]; result in words, summary of Table 2",strong
same,IC50,A549 (human lung cancer),0.72 µg/mL
same,IC90,A549 (human lung cancer),> 16 µg/mL
same,IC50,[7],0.14 µg/mL
same,IC90,[7],16 µg/mL
same,IC50,[8],0.3 µg/mL
same,IC90,[8],> 16 µg/mL
same,IC50,[9],0.23 µg/mL
same,IC90,[9],> 16 µg/mL
same,IC50,[10],0.12 µg/mL
same,IC90,[10],16 µg/mL
same,IC50,[11],0.15 µg/mL
same,IC90,[11],6 µg/mL
same,IC50,[12],2.75 µg/mL
same,IC90,[12],6.97 µg/mL
same,IC50,[13],0.15 µg/mL
same,IC90,[13],16 µg/mL
same,IC50,[14],1.37 µg/mL
same,IC90,[14],> 16 µg/mL
same,IC50,MG63 (osteosarcoma),0.12 µg/mL
same,IC90,MG63 (osteosarcoma),8.07 µg/mL
same,IC50,[15],0.15 µg/mL
same,IC90,[15],> 16 µg/mL
same,IC50,PC-3 (prostate cancer),0.46 µg/mL
same,IC90,PC-3 (prostate cancer),> 16 µg/mL
same,IC50,[16],0.47 µg/mL
same,IC90,[16],> 16 µg/mL
same,IC50,[17],0.32 µg/mL
same,IC90,[17],16 µg/mL
same,"anti-K562/adr, anti-NB4, anti-Kasumi-1 and anti-H9 activity",[18],strong
same,"anti-A549, anti-PANC-1, anti-Becap37, anti-MG63, anti-Huh7, anti-RKO, anti-Hela, anti-CaES-17, anti-CNE, anti-Hep-2, anti-PC-3 and anti-SK-OV-3 effect",[19],strong
